The values below come from article PMC7005745 (Scientific Reports, 2020).

Like-named read-outs stand apart in the source and are kept apart here.

For data set [1], the system named is Y. pseudotuberculosis serotype III strain YPIII(pIB102E-lux). The data set is classed as cell-based, Yersinia pseudotuberculosis.
The test system of data set [2] is yopE expression (T3SS). The data set is classed as cell-based, Yersinia pseudotuberculosis. Particulars: for IC50: read-out: E-lux IC50.
The subject of data set [3] is YopH secretion (T3SS). The data set is classed as cell-based, Yersinia pseudotuberculosis.
Data set [4] has as its system J774 cells.
The subject of data set [5] is secretion of Yop effector proteins (T3SS), YPIII(pIB102). In kind it is cell-based, Yersinia pseudotuberculosis. Particulars: 40 µM, Western blot. On the technique in general: A western blot detects proteins with antibodies after separation by electrophoresis.
Data set [6] has as its system P. aeruginosa PAK(pCS500). The data set is classed as cell-based, Pseudomonas aeruginosa.
Data set [7] relates to ExoS expression (T3SS), PAK(pCS500). In kind it is cell-based, Pseudomonas aeruginosa. Particulars: read-out: IC50 ExoS-gfp.
The subject of data set [8] is wild-type P. aeruginosa strain PAK infecting J774 cells.
The subject of data set [9] is Y. pseudotuberculosis YPIII(pIB102; pFU95). In kind it is cell-based, Yersinia pseudotuberculosis.
Where [10] appears, read: Y. pseudotuberculosis, LB with 2.5 mM CaCl2, 37 °C, OD600 up to 24 h.
Setting [11] is: combined yopE-lux and YopH phosphatase assay.
Setting [12] is: yopE expression, YPIII(pIB102E-lux), T3S-inducing conditions, compounds 1–100 µM.
Setting [13] is: YopH secretion, YPIII(pIB102E-lux), T3S-inducing conditions, compounds 1–100 µM.

With `Oc1ccc(/C=C\c2cc(O)cc3oc(-c4ccc(O)cc4)c(-c4cc(O)cc(O)c4)c23)cc1` [compound 8, Viniferifuran], the Growth inhibition entry in data set [1] (setting [10]) is “without any effect on bacterial growth and No”. Further, in [2] (1–100 µM, Fig. 1a), the “Inhibition of yopE expression (in words)” value is “dose-dependent inhibition”. The “Inhibition of the T3SS (in words)” value in data set [2] (setting [11]) was “good inhibition”. Also, the IC50 (commonly the concentration that gives 50% inhibition) turned out to be 10 µM in data set [2] (setting [12]), 4 µM in [3] (setting [13]) and 11 µM in data set [7]. The “Inhibition of YopH secretion (in words)” value in [3] (1–100 µM, Fig. 1b) is on record as “dose-dependent inhibition”. Besides, the “Toxicity J774” value in [4] is reported as “Tox”. Further, the “Reversibility of block of effector secretion (T3SS) after washing” value in data set [5] was “irreversibly block secretion of effector molecules”; in [5] (listed as viniferifuran) it was “irreversible”. Moreover, the “Tocxicity P.a.” value in data set [6] is “No”.
Regarding (±)-Dehydro-ampelopsin B [compound 4], the Growth inhibition entry in data set [1] was “No”. The “Inhibition of the T3SS (in words)” value in data set [2] is given as “no or modest inhibition”. Besides, the results for the IC50 in [2], in data set [3] and in data set [7] were 40 µM, 20 µM and 33 µM, respectively. The “Toxicity J774” value in data set [4] is given as “No”. Further, the “Tocxicity P.a.” value in data set [6] was “No”. Besides, the “Efficacy Pa J774” value in [8] is reported as “No”.
Consider `C#CCOc1ccc(-c2oc3cc(O)cc(/C=C/c4ccc(O)cc4)c3c2-c2cc(O)cc(O)c2)cc1` [compound 13, Propagylated viniferifuran], for which, in data set [9], the Binding to bacteria result is reported as “clear binding” and the “Competition of binding by free viniferifuran” value is recorded as “binding could be outcompeted”. The IC50 in [2] stood at 6 µM. This molecule also returned a half-maximal inhibitory concentration (IC50) in data set [3] of 3 µM.
On to Anigopreissin A [compound 11], for which the Growth inhibition result in data set [1] was “detrimental effect on bacterial growth and Yes”. In data set [2], the “Inhibition of yopE expression (in words)” value was “dose-dependent inhibition” and the IC50 is 12 µM. Also, in data set [3], half-maximal inhibition (IC50) was put at 6 µM and the “Inhibition of YopH secretion (in words)” value is recorded as “dose-dependent inhibition”. In addition, in data set [4], the “Toxicity J774” value is “Some tox”. Further, the “Tocxicity P.a.” value in data set [6] is listed as “No”. The IC50 in data set [7] stood at 15 µM.
Regarding (±)-δ-Viniferin [compound 9], in data set [1] (setting [10]), the Growth inhibition entry was “No”. Besides, the IC50 came to 29 µM in data set [2] (setting [12]) and 15 µM in data set [3] (setting [13]).
For “(-)-Hopeaphenol [compound 1, reference compound]”, the Growth inhibition entry in data set [1] (setting [10]) was “No”. In addition, the half-inhibitory concentration (IC50) in [2] (setting [12]) is 10 µM; in [3] (setting [13]), 7 µM; in [7] it was 9 µM. The “Reversibility of block of effector secretion (T3SS) after washing” value in data set [5] is “irreversibly block secretion of effector molecules”; in data set [5] (listed as (-)-hopeaphenol) it was “irreversible”. The “Tocxicity P.a.” value in [6] is “No”. For the same molecule, the “Inhibition of T3SS-mediated cytotoxicity” value in [8] (50 µM) is recorded as “complete inhibition of cytotoxicity”.
As to `Oc1ccc([C@H]2c3c(O)cc(O)cc3[C@H]3c4c(cc(O)cc4[C@@H]2O)O[C@@H]3c2ccc(O)cc2)cc1` (racemic) [compound 2, (±)-Ampelopsin A], in [1] (setting [10]), the Growth inhibition entry is listed as “No”. In data set [2] (setting [11]), the “Inhibition of the T3SS (in words)” value was “no or modest inhibition”. Further, the IC50 in [2] (setting [12]) is above 50 µM; in data set [3] (setting [13]), above 50 µM; in data set [7] it was above 200 µM. Besides, in data set [4], the “Toxicity J774” value is listed as “No”. Moreover, in data set [6], the “Tocxicity P.a.” value is “No”. Also, the “Efficacy Pa J774” value in data set [8] was “No”.
Turning to `Oc1ccc(/C=C/c2cc(O)cc3c2[C@@H](c2cc(O)cc(O)c2)[C@H](c2ccc(O)cc2)O3)cc1` (racemic) [compound 6, (±)-ε-Viniferin], in data set [1], the Growth inhibition entry is “No”. In addition, the IC50 in [2] was above 50 µM; in data set [3], 30 µM; in [7] it was 89 µM. Besides, the “Toxicity J774” value in [4] is reported as “No”. Moreover, the “Tocxicity P.a.” value in data set [6] is on record as “No”. Also, the “Efficacy Pa J774” value in data set [8] is on record as “No”.
Regarding `Oc1ccc(-c2oc3ccc(/C=C/c4cc(O)cc(O)c4)cc3c2-c2cc(O)cc(O)c2)cc1` [compound 10, Dehydro-δ-viniferin], in data set [2] (1–100 µM, Fig. 1a), the “Inhibition of yopE expression (in words)” value is recorded as “dose-dependent inhibition”. The IC50 in data set [2] (setting [12]) turned out to be 5 µM; in data set [3] (setting [13]), 4 µM; in [7], 8 µM. In addition, in data set [3] (1–100 µM, Fig. 1b), the “Inhibition of YopH secretion (in words)” value is listed as “dose-dependent inhibition”. The “Toxicity J774” value in [4] is “Tox”. The “Tocxicity P.a.” value in data set [6] is listed as “No”.
Take `Oc1ccc(/C=C/c2cc(O)cc3c2[C@@H](c2cc(O)cc(O)c2)[C@H](c2ccc(O)cc2)O3)cc1` (racemic) [compound 7, (±)-Cis-ε-viniferin (Omega-viniferin)]: the Growth inhibition entry in data set [1] was “No”. The IC50 in data set [2] was above 50 µM; in [3] it was 48 µM.
For the molecule `Oc1ccc([C@@H]2Cc3cc(O)cc4c3[C@H](c3cc(O)cc(O)c32)[C@@H](c2ccc(O)cc2)O4)cc1` (racemic) [compound 3, (±)-Ampelopsin B], in [1], the Growth inhibition entry is given as “No”. Besides, the “Inhibition of the T3SS (in words)” value in [2] is “no or modest inhibition”. In addition, the half-inhibitory concentration (IC50) in data set [2] was above 50 µM; in data set [3], 40 µM; in data set [7], 134 µM. The “Toxicity J774” value in data set [4] was “No”. For the same molecule, the “Tocxicity P.a.” value in data set [6] is given as “No”. The “Efficacy Pa J774” value in data set [8] is “No”.
Consider `Oc1ccc(/C=C/c2cc(O)cc3c2[C@@H](c2cc(O)cc(O)c2)[C@H](c2ccc(O)cc2)O3)cc1` [compound 5, (+)-ε-Viniferin], for which the Growth inhibition result in data set [1] (setting [10]) was “No”. In addition, the IC50 in data set [2] (setting [12]) was above 50 µM; in data set [3] (setting [13]), 15 µM. For the same molecule, in [8], the “Efficacy Pa J774” value was “modest or no efficacy”.
